{
  "source": "patent US20070059364A1",
  "about": "“Active substance combination comprising a compound with npy receptor affinity and a compound with 5-ht6 receptor affinity” (Laboratorios Del Dr. Esteve S.A., priority 2003, published 2007)",
  "data": [
    {"units": {"melting point": "°C"}, "values": [
      {"molecule": "Cc1c(S(=O)(=O)Nc2ccc3c(c2)cc(C)n3CCN(C)C)sc2ccc(Cl)cc12", "note": "[Example 32e, 5-chloro-N-(1-(2-(dimethylamino)ethyl)-2-methyl-1H-indol-5-yl)-3-methylbenzo[b]thiophene-2-sulfonamide]", "melting point": "203 to 205"},
      {"molecule": "Cc1cc2cc(NS(=O)(=O)c3cccc4ccccc34)ccc2n1CCN(C)C", "note": "[Example 34e, N-(1-(2-(dimethylamino)ethyl)-2-methyl-1H-indol-5-yl)-naphthalene-1-sulfonamide]", "melting point": "183 to 184"},
      {"molecule": "Cc1cc2cc(NS(=O)(=O)c3c(Cl)nc4sccn34)ccc2n1CCN(C)C", "note": "[Example 35e, 6-chloro-N-(1-(2-(dimethylamino)ethyl)-2-methyl-1H-indol-5-yl)imidazo[2,1-b]thiazole-5-sulfonamide]", "melting point": "182 to 183"},
      {"molecule": "Cc1cc2cc(NS(=O)(=O)c3ccc(-c4ccccc4)cc3)ccc2n1CCN(C)C", "note": "[Example 36e, N-(1-(2-(dimethylamino)ethyl)-2-methyl-1H-indol-5-yl)-4-phenylbenzenesulfonamide]", "melting point": "176 to 177"},
      {"molecule": "Cc1c(S(=O)(=O)Nc2ccc3[nH]cc(C4CCN5CCCC5C4)c3c2)sc2ccc(Cl)cc12", "note": "(stereo not shown) [Example 38c, N-[3-(octahydroindolizin-7-yl)-1H-indol-5-yl]-5-chloro-3-methylbenzo[b]thiophene-2-sulphonamide]", "melting point": "142 to 144"},
      {"molecule": "Cc1cc2cc(NS(=O)(=O)c3ccc(Oc4ccccc4)cc3)ccc2n1CCN(C)C", "note": "[Example 38e, N-(1-(2-(dimethylamino)ethyl)-2-methyl-1H-indol-5-yl)-4-phenoxy-benzenesulfonamide]", "melting point": "147 to 149"},
      {"molecule": "Cc1cc2cc(NS(=O)(=O)c3cc(Cl)cc(Cl)c3)ccc2n1CCN(C)C", "note": "[Example 39e, 3,5-dichloro-N-(1-(2-(dimethylamino)ethyl)-2-methyl-1H-indol-5-yl)-benzenesulfonamide]", "melting point": "147 to 149"},
      {"molecule": "Cc1cc2cc(NS(=O)(=O)c3csc4ccccc34)ccc2n1CCN(C)C", "note": "[Example 40e, N-(1-(2-(dimethylamino)ethyl)-2-methyl-1H-indol-5-yl)benzo[b]thiophene-3-sulfonamide]", "melting point": "167 to 169"},
      {"molecule": "CN1CCN(Cc2c[nH]c3ccc(NS(=O)(=O)Cc4ccccc4)cc23)CC1", "note": "[Example 41c, N-[3-(4-methylpiperazin-1-yl)methyl-1H-indol-5-yl]-α-toluenesulphonamide]", "melting point": "99 to 102"},
      {"molecule": "CCN(CC)CCn1ccc2cc(NS(=O)(=O)c3csc4ccccc34)ccc21", "note": "[Example 41e, N-(1-(2-(diethylamino)ethyl)-1H-indol-5-yl)benzo[b]thiophene-3-sulfonamide]", "melting point": "62 to 75"},
      {"molecule": "CCN(CC)CCCc1c[nH]c2ccc(NS(=O)(=O)c3ccc4ccccc4c3)cc12", "note": "[Example 42c, N-[3-(3-diethylaminopropyl)-1H-indol-5-yl]naphthalene-2-sulphonamide]", "melting point": "128 to 130"},
      {"molecule": "CN(C)CCn1ccc2cc(NS(=O)(=O)c3csc4ccccc34)ccc21", "note": "[Example 42e, N-(1-(2-(dimethylamino)ethyl)-1H-indol-5-yl)benzo[b]thiophene-3-sulfonamide]", "melting point": "61 to 72"},
      {"molecule": "CCN(CC)CCCc1c[nH]c2ccc(NS(=O)(=O)c3sc4ccc(Cl)cc4c3C)cc12", "note": "[Example 43c, N-[3-(3-diethylaminopropyl)-1H-indol-5-yl]-5-chloro-3-methylbenzo[b]thiophene-2-sulphonamide]", "melting point": "156 to 158"},
      {"molecule": "Cc1c(S(=O)(=O)Nc2ccc3c(ccn3CCCN3CCCCC3)c2)sc2ccc(Cl)cc12", "note": "[Example 43e, 5-chloro-3-methyl-N-(1-(3-(piperidin-1-yl)propyl)-1H-indol-5-yl)benzo[b]thiophene-2-sulfonamide]", "melting point": "82 to 92"},
      {"molecule": "O=S(=O)(Nc1ccc2c(ccn2CCCN2CCCCC2)c1)c1cccc2ccccc12", "note": "[Example 45e, N-(1-(3-(piperidin-1-yl)propyl)-1H-indol-5-yl)naphthalene-1-sulfonamide]", "melting point": "105 to 107"},
      {"molecule": "O=S(=O)(Nc1ccc2c(ccn2CCCN2CCCCC2)c1)c1ccc(-c2ccccc2)cc1", "note": "[Example 47e, 4-phenyl-N-(1-(3-(piperidin-1-yl)propyl)-1H-indol-5-yl)benzenesulfonamide]", "melting point": "148 to 150"},
      {"molecule": "O=S(=O)(CCc1cccc2ccccc12)Nc1ccc2c(ccn2CCCN2CCCCC2)c1", "note": "[Example 48e, 2-(naphth-1-yl)-N-(1-(3-(piperidin-1-yl)propyl)-1H-indol-5-yl)ethanesulfonamide]", "melting point": "59 to 61"},
      {"molecule": "O=S(=O)(Nc1ccc2c(ccn2CCCN2CCCCC2)c1)c1ccc(Oc2ccccc2)cc1", "note": "[Example 49e, 4-phenoxy-N-(1-(3-(piperidin-1-yl)propyl)-1H-indol-5-yl)benzenesulfonamide]", "melting point": "64 to 66"},
      {"molecule": "O=S(=O)(Nc1ccc2[nH]cc(CCN3CCOCC3)c2c1)c1ccc(-c2ccccc2)cc1", "note": "[Example 51c, N-{3-[2-(morpholin-4-yl)ethyl]-1H-indol-5-yl}-4-phenylbenzenesulphonamide]", "melting point": "225 to 228"},
      {"molecule": "O=S(=O)(Nc1ccc2c(ccn2CCCN2CCCCC2)c1)c1cc(Cl)c(Cl)s1", "note": "[Example 51e, 4,5-dichloro-N-(1-(3-(piperidin-1-yl)propyl)-1H-indol-5-yl)thiophene-2-sulfonamide]", "melting point": "70 to 72"},
      {"molecule": "O=S(=O)(Nc1ccc2c(ccn2CCCN2CCCCC2)c1)c1cccc2c(Cl)cccc12", "note": "[Example 52e, 5-chloro-N-(1-(3-(piperidin-1-yl)propyl)-1H-indol-5-yl)naphthalene-1-sulfonamide]", "melting point": "92 to 96"},
      {"molecule": "CN1CCN(CCc2c[nH]c3ccc(NS(=O)(=O)c4cccc5c(Cl)cccc45)cc23)CC1", "note": "[Example 53c, N-[3-(4-methylpiperazin-1-yl)ethyl-1H-indol-5-yl]-5-chloronaphthalene-1-sulphonamide]", "melting point": "246 to 249"}
    ]}
  ]
}
